Assay results reported in patent publication US20250049806A1, “PHARMACEUTICAL COMPOSITION FOR PROVIDING TREATMENT FOR OR PREVENTING ALPORT SYNDROME” (UBE Corporation, priority 2021, published 2025).

Experiment: Transcellular transport test using Caco2 cell
Format: in vitro ADME
Settings: human, Caco-2, apical-to-basolateral (A-to-B), pH=7.4, 10 µM compound
Summary of the method: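 Caco2 monolayers grown 20–22 days were dosed apically in HBSS/20 mM HEPES pH 7.4 (10 mM DMSO stock diluted 1000-fold, 0.1% DMSO) for 90 min at 37 °C. Basolateral compound was measured by LC-MS/MS and donor concentration by UV-HPLC. Papp (A-to-B) was derived from the slope and graded A–D.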

Row | Compound | Papp A→B at 90 min, 10 µM [×10⁻⁶ cm/s]
1 | O=C(O)C[C@H](NC(=O)CNC(=O)c1cc(NC2=NCC(O)CN2)c2cn[nH]c2c1)c1cc(Cl)cc(C(F)(F)F)c1 (stereo partly drawn) [50-(b), (3S)-3-(3-chloro-5-(trifluoromethyl)phenyl)-3-(2-(4-((5-hydroxy-1,4,5,6-tetrahydropyrimidin-2-yl)amino)-1H-indazole-6-carboxamido)acetamido)propanoic acid] | > 1
2 | O=C(O)C[C@H](NC(=O)CNC(=O)c1cc(NC2=NCCCN2)c2cn[nH]c2c1)c1cc(Cl)cc(C(F)(F)F)c1 [51-(b), (S)-3-(3-chloro-5-(trifluoromethyl)phenyl)-3-(2-(4-((1,4,5,6-tetrahydropyrimidin-2-yl)amino)-1H-indazole-6-carboxamido)acetamido)propanoic acid] | > 1
3 | O=C(O)C[C@H](NC(=O)CNC(=O)c1cc(NC2=NCC(F)CN2)cc2[nH]ncc12)c1cc(Cl)cc(C(F)(F)F)c1 (stereo partly drawn) [52-(b), (3S)-3-(3-chloro-5-(trifluoromethyl)phenyl)-3-(2-(6-((5-fluoro-1,4,5,6-tetrahydropyrimidin-2-yl)amino)-1H-indazole-4-carboxamido)acetamido)propanoic acid] | 0.1 to 0.5
4 | O=C(O)C[C@H](NC(=O)CNC(=O)c1cc(NC2=NCC(F)CN2)cc2[nH]ncc12)c1cc(Br)cc(C(F)(F)F)c1 (stereo partly drawn) [53-(b), (3S)-3-(3-bromo-5-(trifluoromethyl)phenyl)-3-(2-(6-((5-fluoro-1,4,5,6-tetrahydropyrimidin-2-yl)amino)-1H-indazole-4-carboxamido)acetamido)propanoic acid] | 0.1 to 0.5

Second part, the molecule after the results:

Row | Papp A→B at 90 min, 10 µM [×10⁻⁶ cm/s] | Compound
5 | 0.1 to 0.5 | O=C(O)C[C@H](NC(=O)CNC(=O)c1cc(NC2=NCC(F)CN2)cc2[nH]ncc12)c1cc(I)cc(C(F)(F)F)c1 (stereo partly drawn) [54-(b), (3S)-3-(2-(6-((5-fluoro-1,4,5,6-tetrahydropyrimidin-2-yl)amino)-1H-indazole-4-carboxamido)acetamido)-3-(3-iodo-5-(trifluoromethyl)phenyl)propanoic acid]
6 | 0.1 to 0.5 | O=C(O)C[C@H](NC(=O)CNC(=O)c1cc(NC2=NCC(F)CN2)cc2[nH]ncc12)c1ccc(F)c(C(F)(F)F)c1 (stereo partly drawn) [55-(b), (3S)-3-(2-(6-((5-fluoro-1,4,5,6-tetrahydropyrimidin-2-yl)amino)-1H-indazole-4-carboxamido)acetamido)-3-(4-fluoro-3-(trifluoromethyl)phenyl)propanoic acid]
7 | 0.1 to 0.5 | O=C(O)C[C@H](NC(=O)CNC(=O)c1cc(NC2=NCC(F)CN2)cc2[nH]ncc12)c1cccc(C(F)(F)F)c1 (stereo partly drawn) [56-(b), (3S)-3-(2-(6-((5-fluoro-1,4,5,6-tetrahydropyrimidin-2-yl)amino)-1H-indazole-4-carboxamido)acetamido)-3-(3-(trifluoromethyl)phenyl)propanoic acid]
